Results as given in ChEMBL document CHEMBL3991601, “The target landscape of clinical kinase drugs” (Science, 2017).
Blank lines part the entries; values can stand above or below the molecule they belong to. Calls of active or inactive are those of the source. For most assays here, no stated cut-off is given here; in the data, actives have a measured Kd and inactives only a lower limit.

Assays:
[1] = molecular target: Cyclin-dependent kinase 3 (Homo sapiens, UniProt Q00526)
[2] = molecular target: Serine/threonine-protein kinase B-raf (Homo sapiens, UniProt P15056)
Chain of Serine/threonine-protein kinase B-raf (P15056 whole entry): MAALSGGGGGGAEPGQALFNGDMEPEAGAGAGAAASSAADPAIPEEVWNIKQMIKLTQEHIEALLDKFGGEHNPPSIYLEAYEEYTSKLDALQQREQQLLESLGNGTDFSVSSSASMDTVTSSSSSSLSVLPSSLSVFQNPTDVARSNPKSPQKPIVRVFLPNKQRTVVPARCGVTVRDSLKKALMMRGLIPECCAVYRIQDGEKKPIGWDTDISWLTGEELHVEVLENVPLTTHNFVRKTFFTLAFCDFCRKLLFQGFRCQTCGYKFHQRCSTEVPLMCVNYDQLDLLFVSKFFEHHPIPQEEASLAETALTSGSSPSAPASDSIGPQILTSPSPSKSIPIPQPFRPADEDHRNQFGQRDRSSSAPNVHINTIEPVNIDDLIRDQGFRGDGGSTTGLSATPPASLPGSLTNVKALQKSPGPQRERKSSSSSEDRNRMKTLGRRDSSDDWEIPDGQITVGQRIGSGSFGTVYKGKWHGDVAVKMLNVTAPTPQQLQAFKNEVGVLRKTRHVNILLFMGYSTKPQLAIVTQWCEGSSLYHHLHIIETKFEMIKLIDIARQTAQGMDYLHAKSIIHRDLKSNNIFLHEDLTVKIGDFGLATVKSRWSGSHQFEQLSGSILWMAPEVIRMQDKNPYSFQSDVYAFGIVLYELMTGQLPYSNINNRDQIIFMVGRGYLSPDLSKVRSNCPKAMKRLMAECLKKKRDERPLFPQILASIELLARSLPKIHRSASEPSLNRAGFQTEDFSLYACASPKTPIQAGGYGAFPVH

[3] = molecular target: Rho-associated protein kinase 1 (Homo sapiens, UniProt Q13464)
Chain of Rho-associated protein kinase 1 (Q13464 whole entry): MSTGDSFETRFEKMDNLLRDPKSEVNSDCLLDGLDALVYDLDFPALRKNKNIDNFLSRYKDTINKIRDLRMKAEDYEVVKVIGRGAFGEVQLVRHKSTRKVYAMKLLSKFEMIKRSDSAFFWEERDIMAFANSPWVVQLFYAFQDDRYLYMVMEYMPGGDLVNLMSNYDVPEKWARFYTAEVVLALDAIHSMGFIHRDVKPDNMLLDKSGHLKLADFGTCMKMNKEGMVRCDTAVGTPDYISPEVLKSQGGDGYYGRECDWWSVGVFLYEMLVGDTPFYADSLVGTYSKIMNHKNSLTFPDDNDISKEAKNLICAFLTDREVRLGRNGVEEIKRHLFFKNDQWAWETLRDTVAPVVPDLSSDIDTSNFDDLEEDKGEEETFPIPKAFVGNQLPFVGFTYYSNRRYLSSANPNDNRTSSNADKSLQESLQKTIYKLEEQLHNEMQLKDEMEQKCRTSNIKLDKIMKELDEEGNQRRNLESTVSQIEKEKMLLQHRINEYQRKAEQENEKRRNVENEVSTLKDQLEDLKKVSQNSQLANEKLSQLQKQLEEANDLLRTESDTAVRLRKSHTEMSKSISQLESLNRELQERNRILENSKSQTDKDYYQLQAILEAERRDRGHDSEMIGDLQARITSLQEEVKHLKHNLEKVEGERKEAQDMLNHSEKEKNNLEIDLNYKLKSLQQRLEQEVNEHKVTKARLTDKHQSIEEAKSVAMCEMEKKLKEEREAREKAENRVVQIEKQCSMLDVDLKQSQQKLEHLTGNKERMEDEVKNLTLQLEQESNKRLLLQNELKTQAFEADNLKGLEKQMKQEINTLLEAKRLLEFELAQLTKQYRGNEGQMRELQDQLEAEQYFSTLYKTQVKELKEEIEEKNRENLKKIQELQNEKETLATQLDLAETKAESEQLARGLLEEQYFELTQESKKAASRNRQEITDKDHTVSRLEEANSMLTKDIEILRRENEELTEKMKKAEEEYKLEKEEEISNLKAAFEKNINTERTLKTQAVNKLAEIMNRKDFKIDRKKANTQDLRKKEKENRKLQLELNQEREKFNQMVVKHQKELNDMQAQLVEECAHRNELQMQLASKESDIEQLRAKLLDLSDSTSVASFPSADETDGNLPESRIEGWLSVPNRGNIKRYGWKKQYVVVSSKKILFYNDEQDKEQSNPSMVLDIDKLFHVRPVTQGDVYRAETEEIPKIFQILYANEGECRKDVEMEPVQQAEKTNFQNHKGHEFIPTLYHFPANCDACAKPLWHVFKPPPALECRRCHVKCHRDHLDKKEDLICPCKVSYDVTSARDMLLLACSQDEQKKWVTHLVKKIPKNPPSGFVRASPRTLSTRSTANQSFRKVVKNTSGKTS

[4] = molecular target: Ephrin type-A receptor 4 (Homo sapiens, UniProt P54764)
[5] = molecular target: T1, Interleukin-1 receptor-associated kinase 4 (Homo sapiens, UniProt Q9NWZ3)
T1 sequence (Q9NWZ3 whole entry): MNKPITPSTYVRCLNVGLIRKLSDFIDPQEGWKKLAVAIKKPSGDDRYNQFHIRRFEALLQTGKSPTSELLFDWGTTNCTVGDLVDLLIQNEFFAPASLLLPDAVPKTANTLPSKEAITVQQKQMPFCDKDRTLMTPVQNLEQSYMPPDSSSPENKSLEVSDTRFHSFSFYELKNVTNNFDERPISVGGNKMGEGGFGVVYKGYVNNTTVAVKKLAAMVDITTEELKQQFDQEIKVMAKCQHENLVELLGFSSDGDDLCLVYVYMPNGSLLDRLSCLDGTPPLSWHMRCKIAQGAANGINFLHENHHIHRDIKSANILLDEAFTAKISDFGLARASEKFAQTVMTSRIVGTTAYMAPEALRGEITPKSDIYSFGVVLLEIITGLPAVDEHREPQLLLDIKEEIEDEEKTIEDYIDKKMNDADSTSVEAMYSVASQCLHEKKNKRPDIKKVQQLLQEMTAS

[6] = molecular target: Tyrosine-protein kinase SYK (Homo sapiens, UniProt P43405)
[7] = molecular target: Platelet-derived growth factor receptor beta (Homo sapiens, UniProt P09619)
Chain of Platelet-derived growth factor receptor beta (P09619 whole entry): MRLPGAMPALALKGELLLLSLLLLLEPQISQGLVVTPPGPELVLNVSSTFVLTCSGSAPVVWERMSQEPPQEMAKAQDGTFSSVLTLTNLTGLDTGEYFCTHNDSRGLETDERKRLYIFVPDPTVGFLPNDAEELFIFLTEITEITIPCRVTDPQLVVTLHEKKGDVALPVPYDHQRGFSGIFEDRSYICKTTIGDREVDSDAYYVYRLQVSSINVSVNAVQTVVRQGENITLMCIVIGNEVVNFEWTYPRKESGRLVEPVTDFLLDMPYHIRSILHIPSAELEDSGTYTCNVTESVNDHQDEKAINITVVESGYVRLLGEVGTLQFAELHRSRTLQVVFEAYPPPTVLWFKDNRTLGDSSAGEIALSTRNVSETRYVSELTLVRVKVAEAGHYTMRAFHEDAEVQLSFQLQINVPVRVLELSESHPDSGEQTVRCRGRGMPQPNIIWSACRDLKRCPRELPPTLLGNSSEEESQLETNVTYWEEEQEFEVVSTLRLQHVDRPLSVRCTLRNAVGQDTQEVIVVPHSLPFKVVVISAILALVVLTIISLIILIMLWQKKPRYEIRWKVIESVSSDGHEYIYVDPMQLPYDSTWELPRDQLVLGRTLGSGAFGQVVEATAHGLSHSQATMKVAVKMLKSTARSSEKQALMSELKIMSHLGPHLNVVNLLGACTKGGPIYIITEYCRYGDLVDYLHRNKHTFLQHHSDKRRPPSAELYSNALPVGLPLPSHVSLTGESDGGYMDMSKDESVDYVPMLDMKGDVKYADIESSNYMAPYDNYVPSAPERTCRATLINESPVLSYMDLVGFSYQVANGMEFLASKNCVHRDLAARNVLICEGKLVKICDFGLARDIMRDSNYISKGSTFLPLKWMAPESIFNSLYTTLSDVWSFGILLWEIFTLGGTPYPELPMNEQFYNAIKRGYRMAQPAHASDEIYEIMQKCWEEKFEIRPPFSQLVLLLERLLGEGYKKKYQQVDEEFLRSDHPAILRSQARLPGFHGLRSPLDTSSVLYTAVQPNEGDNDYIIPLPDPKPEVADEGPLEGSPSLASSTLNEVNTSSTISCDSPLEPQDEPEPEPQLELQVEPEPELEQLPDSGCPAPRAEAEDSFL

[8] = molecular target: T2, Serine/threonine-protein kinase Chk1 (Homo sapiens, UniProt O14757)
T2 sequence (O14757 whole entry): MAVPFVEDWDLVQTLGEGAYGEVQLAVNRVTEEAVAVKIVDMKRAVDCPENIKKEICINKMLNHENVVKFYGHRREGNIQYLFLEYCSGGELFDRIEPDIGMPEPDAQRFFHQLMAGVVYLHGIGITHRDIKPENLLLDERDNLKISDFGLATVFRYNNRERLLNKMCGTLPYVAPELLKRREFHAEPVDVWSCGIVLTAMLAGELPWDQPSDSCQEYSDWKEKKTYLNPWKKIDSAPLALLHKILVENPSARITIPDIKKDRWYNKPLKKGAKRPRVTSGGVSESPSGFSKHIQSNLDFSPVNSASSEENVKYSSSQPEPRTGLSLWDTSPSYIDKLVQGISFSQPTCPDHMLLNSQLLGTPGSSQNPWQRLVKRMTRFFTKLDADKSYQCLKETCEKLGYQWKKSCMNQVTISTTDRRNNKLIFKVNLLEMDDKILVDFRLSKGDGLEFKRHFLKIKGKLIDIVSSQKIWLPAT

[9] = molecular target: Tyrosine-protein kinase ABL1 (Homo sapiens, UniProt P00519)
Chain of Tyrosine-protein kinase ABL1 (P00519 whole entry): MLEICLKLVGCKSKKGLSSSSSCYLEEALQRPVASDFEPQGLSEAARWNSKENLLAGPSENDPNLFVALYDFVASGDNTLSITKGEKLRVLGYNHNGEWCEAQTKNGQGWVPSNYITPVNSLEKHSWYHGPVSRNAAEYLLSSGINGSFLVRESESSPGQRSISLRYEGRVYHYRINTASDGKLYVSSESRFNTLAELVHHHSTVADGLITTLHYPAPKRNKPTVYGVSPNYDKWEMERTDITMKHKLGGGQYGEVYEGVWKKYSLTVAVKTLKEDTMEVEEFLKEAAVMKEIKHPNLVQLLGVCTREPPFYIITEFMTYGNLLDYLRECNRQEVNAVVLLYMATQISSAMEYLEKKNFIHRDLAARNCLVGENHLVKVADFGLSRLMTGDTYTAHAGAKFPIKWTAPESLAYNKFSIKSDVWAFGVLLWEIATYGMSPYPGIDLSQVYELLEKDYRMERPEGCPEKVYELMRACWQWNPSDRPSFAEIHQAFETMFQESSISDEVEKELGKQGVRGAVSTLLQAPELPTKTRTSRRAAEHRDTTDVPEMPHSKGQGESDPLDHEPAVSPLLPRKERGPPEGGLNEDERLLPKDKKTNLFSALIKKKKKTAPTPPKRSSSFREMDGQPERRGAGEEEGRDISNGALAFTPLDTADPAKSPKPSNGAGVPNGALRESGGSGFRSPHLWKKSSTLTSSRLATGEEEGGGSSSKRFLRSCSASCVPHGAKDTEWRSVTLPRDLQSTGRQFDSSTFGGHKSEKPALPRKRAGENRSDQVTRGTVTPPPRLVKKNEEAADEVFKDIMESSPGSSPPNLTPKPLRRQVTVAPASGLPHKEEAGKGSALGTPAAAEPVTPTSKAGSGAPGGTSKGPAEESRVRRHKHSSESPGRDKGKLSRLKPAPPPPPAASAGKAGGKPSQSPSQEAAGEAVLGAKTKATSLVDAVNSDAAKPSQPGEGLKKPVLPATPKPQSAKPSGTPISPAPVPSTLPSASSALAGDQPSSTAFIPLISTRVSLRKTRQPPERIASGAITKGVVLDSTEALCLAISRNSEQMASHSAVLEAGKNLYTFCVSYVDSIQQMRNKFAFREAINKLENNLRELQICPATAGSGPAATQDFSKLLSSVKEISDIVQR

[10] = molecular target: T3, Serine/threonine-protein kinase Nek1 (Homo sapiens, UniProt Q96PY6)
T3 sequence (Q96PY6 whole entry): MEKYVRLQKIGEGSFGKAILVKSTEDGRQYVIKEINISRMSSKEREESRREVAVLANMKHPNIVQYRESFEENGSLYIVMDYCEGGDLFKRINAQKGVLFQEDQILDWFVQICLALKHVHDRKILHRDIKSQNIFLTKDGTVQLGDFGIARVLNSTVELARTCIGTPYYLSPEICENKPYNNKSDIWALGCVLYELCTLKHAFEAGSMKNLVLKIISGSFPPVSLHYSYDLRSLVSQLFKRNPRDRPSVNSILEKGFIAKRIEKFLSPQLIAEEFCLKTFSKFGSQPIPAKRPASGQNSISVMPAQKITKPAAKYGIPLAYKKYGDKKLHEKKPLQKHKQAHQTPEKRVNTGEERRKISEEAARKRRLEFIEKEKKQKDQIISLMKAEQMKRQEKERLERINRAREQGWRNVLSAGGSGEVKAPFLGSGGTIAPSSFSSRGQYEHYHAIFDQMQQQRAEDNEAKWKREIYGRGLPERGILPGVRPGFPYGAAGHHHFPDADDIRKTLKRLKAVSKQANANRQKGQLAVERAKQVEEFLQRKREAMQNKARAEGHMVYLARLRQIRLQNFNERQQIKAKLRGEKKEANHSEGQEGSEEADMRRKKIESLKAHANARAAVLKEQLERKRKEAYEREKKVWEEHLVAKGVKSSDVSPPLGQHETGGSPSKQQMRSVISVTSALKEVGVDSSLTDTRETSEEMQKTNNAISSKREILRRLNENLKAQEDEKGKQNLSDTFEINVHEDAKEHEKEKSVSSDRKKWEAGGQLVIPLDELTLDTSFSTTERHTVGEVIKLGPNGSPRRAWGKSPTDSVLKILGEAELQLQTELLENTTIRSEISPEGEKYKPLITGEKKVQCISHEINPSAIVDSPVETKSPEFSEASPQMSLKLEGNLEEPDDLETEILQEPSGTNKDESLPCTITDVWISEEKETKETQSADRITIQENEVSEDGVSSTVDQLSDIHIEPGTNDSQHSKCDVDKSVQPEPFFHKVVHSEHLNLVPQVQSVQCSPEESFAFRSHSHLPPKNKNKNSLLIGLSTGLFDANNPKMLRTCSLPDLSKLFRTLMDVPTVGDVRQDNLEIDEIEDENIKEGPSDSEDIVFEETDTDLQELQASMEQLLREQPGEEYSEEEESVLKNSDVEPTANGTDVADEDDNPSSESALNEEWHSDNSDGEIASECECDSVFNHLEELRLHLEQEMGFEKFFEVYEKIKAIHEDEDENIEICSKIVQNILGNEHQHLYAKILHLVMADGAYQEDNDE

[11] = molecular target: Serine/threonine-protein kinase pim-1 (Homo sapiens, UniProt P11309)
Chain of Serine/threonine-protein kinase pim-1 (P11309 whole entry): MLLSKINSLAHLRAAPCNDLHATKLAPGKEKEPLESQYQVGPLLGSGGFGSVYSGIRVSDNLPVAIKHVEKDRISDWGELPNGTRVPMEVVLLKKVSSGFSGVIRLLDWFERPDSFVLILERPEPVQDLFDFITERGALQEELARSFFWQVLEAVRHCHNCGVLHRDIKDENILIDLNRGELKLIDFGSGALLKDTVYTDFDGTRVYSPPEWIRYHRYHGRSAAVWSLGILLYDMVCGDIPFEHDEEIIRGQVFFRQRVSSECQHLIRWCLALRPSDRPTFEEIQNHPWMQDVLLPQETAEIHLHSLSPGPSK

Chain of Cyclin-dependent kinase 3 (Q00526 whole entry): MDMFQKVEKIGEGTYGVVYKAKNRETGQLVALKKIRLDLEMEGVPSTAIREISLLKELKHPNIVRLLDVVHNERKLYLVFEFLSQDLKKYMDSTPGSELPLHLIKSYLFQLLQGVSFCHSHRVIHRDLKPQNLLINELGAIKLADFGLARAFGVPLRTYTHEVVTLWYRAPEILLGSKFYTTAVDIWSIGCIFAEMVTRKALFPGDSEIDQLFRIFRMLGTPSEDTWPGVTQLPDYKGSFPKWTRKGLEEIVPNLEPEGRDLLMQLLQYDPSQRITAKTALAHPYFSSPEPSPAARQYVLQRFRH

- Kd [1]: > 30 µM (inactive)
- Kd [2]: > 30 µM (inactive)
- Kd [3]: > 30 µM (inactive)
- Kd [4]: > 30 µM (inactive)
- Kd [5]: > 30 µM (inactive)
- Kd [6]: > 30 µM (inactive)
- Kd [7]: 9.38 µM (active)
- Kd [8]: > 30 µM (inactive)
- Kd [9]: 1.09 µM (active)
- Kd [10]: > 30 µM (inactive)
- Kd [11]: > 30 µM (inactive)
SMILES: CCN1CCN(Cc2ccc(-c3cc4c(N[C@H](C)c5ccccc5)ncnc4[nH]3)cc2)CC1 [AEE-788]

- Kd [1]: > 30 µM (inactive)
- Kd [2]: > 30 µM (inactive)
- Kd [3]: > 30 µM (inactive)
- Kd [4]: > 30 µM (inactive)
- Kd [5]: > 30 µM (inactive)
- Kd [6]: > 30 µM (inactive)
- Kd [7]: 2.67 µM (active)
- Kd [8]: > 30 µM (inactive)
- Kd [9]: > 30 µM (inactive)
- Kd [10]: > 30 µM (inactive)
- Kd [11]: > 30 µM (inactive)
SMILES: C1=C/COCc2cc(ccc2OCCN2CCCC2)Nc2nccc(n2)-c2cccc(c2)COC/1 [PACRITINIB]

- Kd [1]: > 30 µM (inactive)
- Kd [2]: > 30 µM (inactive)
- Kd [3]: > 30 µM (inactive)
- Kd [4]: > 30 µM (inactive)
- Kd [5]: > 30 µM (inactive)
- Kd [6]: > 30 µM (inactive)
- Kd [7]: > 30 µM (inactive)
- Kd [8]: > 30 µM (inactive)
- Kd [9]: > 30 µM (inactive)
- Kd [10]: > 30 µM (inactive)
- Kd [11]: > 30 µM (inactive)
SMILES: CC[C@@H]1C(=O)N(C)c2cnc(Nc3ccc(C(=O)N[C@H]4CC[C@H](N5CCN(CC6CC6)CC5)CC4)cc3OC)nc2N1C(C)C [VOLASERTIB]

Further lines, the molecule ahead of its results:

SMILES: CN1CC[C@@H](c2c(O)cc(O)c3c(=O)cc(-c4ccccc4Cl)oc23)[C@@H]1CO
- Kd [1]: > 30 µM (inactive)
- Kd [2]: > 30 µM (inactive)
- Kd [3]: > 30 µM (inactive)
- Kd [4]: > 30 µM (inactive)
- Kd [5]: > 30 µM (inactive)
- Kd [6]: > 30 µM (inactive)
- Kd [7]: > 30 µM (inactive)
- Kd [8]: > 30 µM (inactive)
- Kd [9]: > 30 µM (inactive)
- Kd [10]: > 30 µM (inactive)
- Kd [11]: > 30 µM (inactive)

SMILES: COc1cc(OC)c(/C=C/S(=O)(=O)Cc2ccc(OC)c(NCC(=O)O)c2)c(OC)c1 [RIGOSERTIB]
- Kd [1]: > 30 µM (inactive)
- Kd [2]: > 30 µM (inactive)
- Kd [3]: > 30 µM (inactive)
- Kd [4]: > 30 µM (inactive)
- Kd [5]: > 30 µM (inactive)
- Kd [6]: > 30 µM (inactive)
- Kd [7]: > 30 µM (inactive)
- Kd [8]: > 30 µM (inactive)
- Kd [9]: > 30 µM (inactive)
- Kd [10]: > 30 µM (inactive)
- Kd [11]: > 30 µM (inactive)

SMILES: C[C@@H](c1ccc2nccn2c1)n1nnc2ncc(-c3cnn(C)c3)nc21 [SAVOLITINIB]
- Kd [1]: > 30 µM (inactive)
- Kd [2]: > 30 µM (inactive)
- Kd [3]: > 30 µM (inactive)
- Kd [4]: > 30 µM (inactive)
- Kd [5]: > 30 µM (inactive)
- Kd [6]: > 30 µM (inactive)
- Kd [7]: > 30 µM (inactive)
- Kd [8]: > 30 µM (inactive)
- Kd [9]: > 30 µM (inactive)
- Kd [10]: > 30 µM (inactive)
- Kd [11]: > 30 µM (inactive)

SMILES: Cc1cc2c(F)c(Oc3ncnn4cc(OC[C@@H](C)OC(=O)[C@H](C)N)c(C)c34)ccc2[nH]1 [BRIVANIB ALANINATE]
- Kd [1]: > 30 µM (inactive)
- Kd [2]: > 30 µM (inactive)
- Kd [3]: > 30 µM (inactive)
- Kd [4]: > 30 µM (inactive)
- Kd [5]: > 30 µM (inactive)
- Kd [6]: > 30 µM (inactive)
- Kd [7]: 1.89 µM (active)
- Kd [8]: > 30 µM (inactive)
- Kd [9]: > 30 µM (inactive)
- Kd [10]: > 30 µM (inactive)
- Kd [11]: > 30 µM (inactive)
